In ChEMBL document CHEMBL1909046, “DrugMatrix in vitro pharmacology data” one finds IC50 and Ki data, which are given here for 18 compounds.

*1 amine or outer side, *2 acyl side, *3 side chain or, on linkers, in order; H or OH if unused. Where a SMILES comes first, the peptide text is derived from it. Bridges are numbered along the chain shown (N, C = ends). Roman numbers before positions name the chains, in order. [ ]: non-standard residue; d: D form. Actinocin(1to9) = Cc1c2oc3c(C)ccc(C(=O)[*:2])c3nc-2c(C(=O)[*:1])c(N)c1=O; NMeV = CN[C@H](C(=O)O)C(C)C; Sar = CNCC(=O)O

One data set addresses Cytochrome P450 3A4 (Homo sapiens, UniProt P08684). The settings on record: bti-tn-5b1-4.
Data set [1] deals with Beta-1 adrenergic receptor (Homo sapiens, UniProt P08588). The experiment in a line: DRUGMATRIX: Adrenergic beta1 radioligand binding (ligand: [125I] Cyanopindolol). The format is cell membranes, CHO-K1, Membrane. The settings on record: cho-k1; Not Active = under 50% inhibition at 10 µM.
Data set [2] in a line: DRUGMATRIX: Sigma2 radioligand binding (ligand: [3H] Ifenprodil). As to conditions: Not Active = under 50% inhibition at 10 µM. The format is cell membranes, Rattus norvegicus, Wistar, Brain, Membrane.
Another data set concerns the target Cytochrome P450 2C9 (Homo sapiens, UniProt P11712). As to conditions: bti-tn-5b1-4. Further: in other assays of this panel Not Active means under 50% inhibition at 10 µM.
The target of data set [3] is T1, Muscarinic acetylcholine receptor M2 (Homo sapiens, UniProt P08172). Further: in other assays of this panel Not Active means under 50% inhibition at 10 µM.
T1 sequence (P08172 whole entry): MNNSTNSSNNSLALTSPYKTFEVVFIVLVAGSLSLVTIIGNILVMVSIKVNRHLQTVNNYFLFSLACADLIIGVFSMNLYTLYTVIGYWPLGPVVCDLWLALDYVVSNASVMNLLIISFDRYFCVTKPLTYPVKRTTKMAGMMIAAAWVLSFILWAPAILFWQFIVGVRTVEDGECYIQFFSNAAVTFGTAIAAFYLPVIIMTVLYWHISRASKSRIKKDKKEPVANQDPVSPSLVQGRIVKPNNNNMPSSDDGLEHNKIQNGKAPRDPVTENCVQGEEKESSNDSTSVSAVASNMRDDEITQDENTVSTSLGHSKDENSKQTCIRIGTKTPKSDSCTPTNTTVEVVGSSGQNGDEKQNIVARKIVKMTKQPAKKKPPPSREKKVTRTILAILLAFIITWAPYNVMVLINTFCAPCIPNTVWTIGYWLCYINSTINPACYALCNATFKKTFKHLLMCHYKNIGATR
The format is cell membranes, CHO-K1, Membrane. The settings on record: cho-k1.

A short description of data set [4]: DRUGMATRIX: Phorbol Ester radioligand binding (ligand: [3H] PDBu). The format is cell membranes, Mus musculus, ICR, Brain, Membrane. As to conditions: Not Active = under 50% inhibition at 10 µM.

Chain of Cytochrome P450 2C9 (P11712 whole entry): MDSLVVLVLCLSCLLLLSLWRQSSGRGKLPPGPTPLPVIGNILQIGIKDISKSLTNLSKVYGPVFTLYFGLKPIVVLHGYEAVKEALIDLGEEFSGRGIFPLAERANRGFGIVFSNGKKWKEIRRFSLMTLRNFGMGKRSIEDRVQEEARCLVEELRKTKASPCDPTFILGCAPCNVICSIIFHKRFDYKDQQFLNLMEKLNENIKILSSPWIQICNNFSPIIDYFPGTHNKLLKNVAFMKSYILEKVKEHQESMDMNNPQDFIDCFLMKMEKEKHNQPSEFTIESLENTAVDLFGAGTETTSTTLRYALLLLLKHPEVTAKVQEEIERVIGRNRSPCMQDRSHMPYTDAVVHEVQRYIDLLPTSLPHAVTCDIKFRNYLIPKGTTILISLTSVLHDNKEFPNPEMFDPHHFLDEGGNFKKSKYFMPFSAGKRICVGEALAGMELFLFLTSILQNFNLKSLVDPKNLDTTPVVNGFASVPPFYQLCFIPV
Chain of Beta-1 adrenergic receptor (P08588 whole entry): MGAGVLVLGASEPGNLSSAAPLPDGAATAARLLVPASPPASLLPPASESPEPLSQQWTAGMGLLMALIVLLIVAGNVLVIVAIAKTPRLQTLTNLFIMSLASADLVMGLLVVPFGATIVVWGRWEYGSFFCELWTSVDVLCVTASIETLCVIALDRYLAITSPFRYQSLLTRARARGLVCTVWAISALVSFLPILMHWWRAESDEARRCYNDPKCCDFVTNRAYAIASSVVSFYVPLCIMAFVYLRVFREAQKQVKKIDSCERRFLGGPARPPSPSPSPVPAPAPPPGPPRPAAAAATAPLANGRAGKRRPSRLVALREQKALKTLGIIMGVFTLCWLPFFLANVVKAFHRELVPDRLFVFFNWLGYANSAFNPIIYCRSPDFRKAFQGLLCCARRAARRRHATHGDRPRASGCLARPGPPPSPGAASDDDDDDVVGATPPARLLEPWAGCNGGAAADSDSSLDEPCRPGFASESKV
Chain of Cytochrome P450 3A4 (P08684 whole entry): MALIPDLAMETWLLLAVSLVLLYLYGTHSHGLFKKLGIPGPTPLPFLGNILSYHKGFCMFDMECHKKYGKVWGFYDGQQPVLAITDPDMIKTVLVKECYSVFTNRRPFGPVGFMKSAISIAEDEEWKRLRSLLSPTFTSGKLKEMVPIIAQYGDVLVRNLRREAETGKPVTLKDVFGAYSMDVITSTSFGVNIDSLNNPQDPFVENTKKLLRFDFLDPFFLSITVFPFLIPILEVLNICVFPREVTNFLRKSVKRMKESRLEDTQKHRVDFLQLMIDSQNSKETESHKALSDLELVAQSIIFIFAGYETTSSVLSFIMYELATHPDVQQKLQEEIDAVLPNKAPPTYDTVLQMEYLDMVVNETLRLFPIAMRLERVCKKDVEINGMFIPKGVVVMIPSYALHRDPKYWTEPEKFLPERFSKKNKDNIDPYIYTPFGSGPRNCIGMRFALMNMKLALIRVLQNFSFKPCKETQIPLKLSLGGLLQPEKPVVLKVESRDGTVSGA

With `O=c1[nH]c(=O)n([C@H]2C[C@H](O)[C@@H](CO)O2)cc1I` [IDOXURIDINE], the IC50 entry (against Cytochrome P450 3A4; in data set [1]; in data set [2]; on Cytochrome P450 2C9; in data set [3]; in data set [4]) was “Not Active” each time. Moreover, the inhibition constant Ki result (at Cytochrome P450 3A4; in data set [2]; at Cytochrome P450 2C9; in data set [4]) was “Not Active” in each case.

As for `C[C@H](CCC(=O)O)[C@H]1CC[C@H]2[C@@H]3[C@H](O)C[C@@H]4C[C@H](O)CC[C@]4(C)[C@H]3C[C@H](O)[C@]12C` [CHOLIC ACID], the IC50 entry (against Cytochrome P450 3A4; in data set [1]; in data set [2]; at Cytochrome P450 2C9; in data set [3]; in data set [4]) was “Not Active” throughout. For the same compound, the Ki entry (at Cytochrome P450 3A4; in data set [2]; on Cytochrome P450 2C9; in data set [4]) was “Not Active” each time.

For the compound `O=C(CCCN1CC=C(n2c(=O)[nH]c3ccccc32)CC1)c1ccc(F)cc1` [DROPERIDOL], the 50% inhibitory concentration (IC50) result on Cytochrome P450 3A4 is “Not Active”; in data set [1], “Not Active”; in data set [2] (read-out: IC50), 3280 nM; against Cytochrome P450 2C9 it was “Not Active”; in data set [3] it was “Not Active”; in data set [4] it was “Not Active”. Besides, the inhibitory constant (Ki) result is “Not Active” at Cytochrome P450 3A4, 2020 nM in data set [2] (read-out: Ki), “Not Active” on Cytochrome P450 2C9 and “Not Active” in data set [4].

As for `C[C@H]1c2cccc(O)c2C(=O)C2=C(O)[C@]3(O)C(=O)C(C(N)=O)=C(O)[C@@H](N(C)C)[C@@H]3[C@@H](O)[C@@H]21.O` [DOXYCYCLINE], the IC50 result (against Cytochrome P450 3A4; in data set [1]; in data set [2]; at Cytochrome P450 2C9; in data set [3]; in data set [4]) was “Not Active” throughout. For the same compound, the inhibition constant Ki result (at Cytochrome P450 3A4; in data set [2]; on Cytochrome P450 2C9; in data set [4]) was “Not Active” in each case.

Consider CADMIUM ACETATE, for which the IC50 result (against Cytochrome P450 3A4; in data set [1]; in data set [2]; on Cytochrome P450 2C9; in data set [3]; in data set [4]) was “Not Active” each time. The inhibition constant (Ki) result (on Cytochrome P450 3A4; in data set [1]; in data set [2]; on Cytochrome P450 2C9; in data set [3]; in data set [4]) was “Not Active” each time.

As to LIPOPOLYSACCHARIDE E. COLI O55:B5, the half-maximal inhibitory concentration (IC50) result (against Cytochrome P450 3A4; in data set [1]; in data set [2]; on Cytochrome P450 2C9; in data set [3]; in data set [4]) was “Not Active” each time. For the same compound, the Ki entry (on Cytochrome P450 3A4; in data set [1]; in data set [2]; on Cytochrome P450 2C9; in data set [3]; in data set [4]) was “Not Active” each time.

With `NCCCCCC(=O)O` [AMINOCAPROIC ACID], the IC50 entry (against Cytochrome P450 3A4; in data set [1]; in data set [2]; on Cytochrome P450 2C9; in data set [3]; in data set [4]) was “Not Active” in each case. Further, the inhibition constant (Ki) result (at Cytochrome P450 3A4; in data set [2]; at Cytochrome P450 2C9; in data set [4]) was “Not Active” throughout.

In the case of `Cc1c(C)c2c(c(C)c1O)CC[C@@](C)(CCC[C@H](C)CCC[C@H](C)CCCC(C)C)O2` [ALPHA-TOCOPHEROL], the concentration for half-maximal inhibition (IC50) entry (against Cytochrome P450 3A4; in data set [1]; in data set [2]; on Cytochrome P450 2C9; in data set [3]; in data set [4]) was “Not Active” throughout. In addition, the Ki result (at Cytochrome P450 3A4; in data set [2]; at Cytochrome P450 2C9; in data set [4]) was “Not Active” in each case.

Regarding `CNNCc1ccc(C(=O)NC(C)C)cc1` [PROCARBAZINE], the IC50 result (on Cytochrome P450 3A4; in data set [1]; in data set [2]; against Cytochrome P450 2C9; in data set [3]; in data set [4]) was “Not Active” in each case. Further, the Ki result (on Cytochrome P450 3A4; in data set [2]; on Cytochrome P450 2C9; in data set [4]) was “Not Active” throughout.

Consider `Cc1ccc(/N=C/N(C)/C=N/c2ccc(C)cc2C)c(C)c1` [AMITRAZ], for which the half-inhibitory concentration (IC50) result (at Cytochrome P450 3A4; in data set [1]; in data set [2]; against Cytochrome P450 2C9; in data set [3]; in data set [4]) was “Not Active” in each case. Also, the Ki result (at Cytochrome P450 3A4; in data set [2]; on Cytochrome P450 2C9; in data set [4]) was “Not Active” throughout.

In the case of `Cc1ccc2cc3c(ccc4ccccc43)c3c2c1CC3` [3-METHYLCHOLANTHRENE], the half-maximal inhibitory concentration (IC50) entry (against Cytochrome P450 3A4; in data set [1]; in data set [2]; against Cytochrome P450 2C9; in data set [3]; in data set [4]) was “Not Active” in each case. The inhibition constant Ki entry (on Cytochrome P450 3A4; in data set [2]; at Cytochrome P450 2C9; in data set [4]) was “Not Active” throughout.

In the case of `OC(Cn1cncn1)(Cn1cncn1)c1ccc(F)cc1F` [FLUCONAZOLE], the IC50 result (on Cytochrome P450 3A4; in data set [1]; in data set [2]; at Cytochrome P450 2C9; in data set [3]; in data set [4]) was “Not Active” each time. The inhibitory constant (Ki) result (on Cytochrome P450 3A4; in data set [2]; on Cytochrome P450 2C9; in data set [4]) was “Not Active” each time.

Take `Cc1c2oc3c(C)ccc(C(=O)N[C@@H]4C(=O)N[C@H](C(C)C)C(=O)N5CCC[C@H]5C(=O)N(C)CC(=O)N(C)[C@@H](C(C)C)C(=O)O[C@@H]4C)c3nc-2c(C(=O)N[C@@H]2C(=O)N[C@H](C(C)C)C(=O)N3CCC[C@H]3C(=O)N(C)CC(=O)N(C)[C@@H](C(C)C)C(=O)O[C@@H]2C)c(N)c1=O` [DACTINOMYCIN] (I: T[dV]P[Sar][NMeV] / II: T[dV]P[Sar][NMeV]; ester I:1-I:C, II:1-II:C; linker I:N-II:N via Actinocin(1to9)): the half-maximal inhibitory concentration (IC50) result (at Cytochrome P450 3A4; in data set [1]; in data set [2]; against Cytochrome P450 2C9; in data set [3]; in data set [4]) was “Not Active” each time. For the same compound, the Ki result (at Cytochrome P450 3A4; in data set [2]; on Cytochrome P450 2C9; in data set [4]) was “Not Active” throughout.

With `Nc1ncn([C@@H]2O[C@H](CO)[C@@H](O)[C@H]2O)c(=O)n1` [AZACITIDINE], the IC50 result (at Cytochrome P450 3A4; in data set [1]; in data set [2]; on Cytochrome P450 2C9; in data set [3]; in data set [4]) was “Not Active” throughout. Also, the Ki result (at Cytochrome P450 3A4; in data set [2]; at Cytochrome P450 2C9; in data set [4]) was “Not Active” throughout.

Consider `CC(NC(C)(C)C)C(=O)c1cccc(Cl)c1` (centres undefined) [BUPROPION], for which the IC50 result against Cytochrome P450 3A4 is “Not Active”; in data set [1], “Not Active”; in data set [2] (read-out: IC50), 2320 nM; on Cytochrome P450 2C9 it was “Not Active”; in data set [3] it was “Not Active”; in data set [4] it was “Not Active”. Moreover, the Ki result is “Not Active” at Cytochrome P450 3A4, 1420 nM in data set [2] (read-out: Ki), “Not Active” at Cytochrome P450 2C9 and “Not Active” in data set [4].

Regarding `Cc1cc(C2CCCCC2)n(O)c(=O)c1` [CICLOPIROX], the IC50 entry (against Cytochrome P450 3A4; in data set [1]; in data set [2]; at Cytochrome P450 2C9; in data set [3]; in data set [4]) was “Not Active” in each case. Moreover, the inhibitory constant (Ki) result (at Cytochrome P450 3A4; in data set [2]; on Cytochrome P450 2C9; in data set [4]) was “Not Active” throughout.

For `CCCCN1CCCC[C@H]1C(=O)Nc1c(C)cccc1C` [LEVOBUPIVACAINE], the IC50 entry (at Cytochrome P450 3A4; in data set [1]; in data set [2]; against Cytochrome P450 2C9; in data set [3]; in data set [4]) was “Not Active” throughout. Moreover, the inhibition constant (Ki) result (on Cytochrome P450 3A4; in data set [2]; at Cytochrome P450 2C9; in data set [4]) was “Not Active” each time.

Regarding `Cc1onc(O)c1CC(N)C(=O)O` (racemic) [(R,S)-AMPA], the IC50 entry (at Cytochrome P450 3A4; in data set [1]; in data set [2]; against Cytochrome P450 2C9; in data set [3]; in data set [4]) was “Not Active” in each case. The Ki entry (on Cytochrome P450 3A4; in data set [2]; at Cytochrome P450 2C9; in data set [4]) was “Not Active” throughout.

As a reminder, the IC50 is the midpoint of a concentration-inhibition curve. Broadly, the Ki is a measure of affinity in units of concentration, obtained from inhibition or displacement.
